The numbers were not newly measured in US20150086650A1 (priority 2012, published 2015), which cites them from elsewhere.

For series [1] the following is noted: rats.

Regarding `CO/C=C(/C(=O)OC)c1ccccc1Oc1cc(Oc2ccccc2C#N)ncn1` [Azoxystrobin], the inhalation toxicity classification entry is recorded as “toxic by inhalation”. In series [1], the “acute oral LD50” value is “more than 5,000 mg/kg”.
